Source: the kinase profiling compilation of Christmann-Franck et al. (2016)

Assays:
Assay in all cases: KINOMEscan competition binding
Conditions in all cases: compound 10.0 µM
CDK3 (human) = CDK3 (human) (UniProt Q00526)
PAK6 (human) = PAK6 (human) (UniProt Q9NQU5)
CSNK2A1 (human) = CSNK2A1 (human) (UniProt P68400)
MINK1 (human) = MINK1 (human) (UniProt Q8N4C8)
RIOK3 (human) = RIOK3 (human) (UniProt O14730)
ROS1 (human) = ROS1 (human) (UniProt P08922)
CSNK2A2 (human) = CSNK2A2 (human) (UniProt P19784)
TGFBR1 (human) = TGFBR1 (human) (UniProt P36897)
STK24 (human) = STK24 (human) (UniProt Q9Y6E0)
DCLK2 (human) = DCLK2 (human) (UniProt Q8N568)
MAP3K5 (human) = MAP3K5 (human) (UniProt Q99683)
AURKB (human) = AURKB (human) (UniProt Q96GD4)
PTK2 (human) = PTK2 (human) (UniProt Q05397)
WEE1 (human) = WEE1 (human) (UniProt P30291)
ERBB4 (human) = ERBB4 (human) (UniProt Q15303)
FLT1 (human) = FLT1 (human) (UniProt P17948)
PRKAA1 (human) = PRKAA1 (human) (UniProt Q13131)
NUAK1 (human) = NUAK1 (human) (UniProt O60285)
EPHB4 (human) = EPHB4 (human) (UniProt P54760)
BMPR2 (human) = BMPR2 (human) (UniProt Q13873)
MELK (human) = MELK (human) (UniProt Q14680)
RPS6KA3 KD1 (human) = RPS6KA3 KD1 (human) (UniProt P51812)
STK36 (human) = STK36 (human) (UniProt Q9NRP7)
CSNK1G2 (human) = CSNK1G2 (human) (UniProt P78368)
ULK1 (human) = ULK1 (human) (UniProt O75385)
MAP3K10 (human) = MAP3K10 (human) (UniProt Q02779)
FER (human) = FER (human) (UniProt P16591)
ULK3 (human) = ULK3 (human) (UniProt Q6PHR2)
PIP4K2B (human) = PIP4K2B (human) (UniProt P78356)
PRKD3 (human) = PRKD3 (human) (UniProt O94806)
MAP2K1 (human) = MAP2K1 (human) (UniProt Q02750)
TNK2 (human) = TNK2 (human) (UniProt Q07912)
ABL2 (human) = ABL2 (human) (UniProt P42684)
STK38L (human) = STK38L (human) (UniProt Q9Y2H1)
EPHA6 (human) = EPHA6 (human) (UniProt Q9UF33)
CDK7 (human) = CDK7 (human) (UniProt P50613)
PIP5K1A (human) = PIP5K1A (human) (UniProt Q99755)
RPS6KA4 KD2 (human) = RPS6KA4 KD2 (human) (UniProt O75676)
CSK (human) = CSK (human) (UniProt P41240)
ZAP70 (human) = ZAP70 (human) (UniProt P43403)

Chain of FLT1 (human) (P17948 whole entry, looked up): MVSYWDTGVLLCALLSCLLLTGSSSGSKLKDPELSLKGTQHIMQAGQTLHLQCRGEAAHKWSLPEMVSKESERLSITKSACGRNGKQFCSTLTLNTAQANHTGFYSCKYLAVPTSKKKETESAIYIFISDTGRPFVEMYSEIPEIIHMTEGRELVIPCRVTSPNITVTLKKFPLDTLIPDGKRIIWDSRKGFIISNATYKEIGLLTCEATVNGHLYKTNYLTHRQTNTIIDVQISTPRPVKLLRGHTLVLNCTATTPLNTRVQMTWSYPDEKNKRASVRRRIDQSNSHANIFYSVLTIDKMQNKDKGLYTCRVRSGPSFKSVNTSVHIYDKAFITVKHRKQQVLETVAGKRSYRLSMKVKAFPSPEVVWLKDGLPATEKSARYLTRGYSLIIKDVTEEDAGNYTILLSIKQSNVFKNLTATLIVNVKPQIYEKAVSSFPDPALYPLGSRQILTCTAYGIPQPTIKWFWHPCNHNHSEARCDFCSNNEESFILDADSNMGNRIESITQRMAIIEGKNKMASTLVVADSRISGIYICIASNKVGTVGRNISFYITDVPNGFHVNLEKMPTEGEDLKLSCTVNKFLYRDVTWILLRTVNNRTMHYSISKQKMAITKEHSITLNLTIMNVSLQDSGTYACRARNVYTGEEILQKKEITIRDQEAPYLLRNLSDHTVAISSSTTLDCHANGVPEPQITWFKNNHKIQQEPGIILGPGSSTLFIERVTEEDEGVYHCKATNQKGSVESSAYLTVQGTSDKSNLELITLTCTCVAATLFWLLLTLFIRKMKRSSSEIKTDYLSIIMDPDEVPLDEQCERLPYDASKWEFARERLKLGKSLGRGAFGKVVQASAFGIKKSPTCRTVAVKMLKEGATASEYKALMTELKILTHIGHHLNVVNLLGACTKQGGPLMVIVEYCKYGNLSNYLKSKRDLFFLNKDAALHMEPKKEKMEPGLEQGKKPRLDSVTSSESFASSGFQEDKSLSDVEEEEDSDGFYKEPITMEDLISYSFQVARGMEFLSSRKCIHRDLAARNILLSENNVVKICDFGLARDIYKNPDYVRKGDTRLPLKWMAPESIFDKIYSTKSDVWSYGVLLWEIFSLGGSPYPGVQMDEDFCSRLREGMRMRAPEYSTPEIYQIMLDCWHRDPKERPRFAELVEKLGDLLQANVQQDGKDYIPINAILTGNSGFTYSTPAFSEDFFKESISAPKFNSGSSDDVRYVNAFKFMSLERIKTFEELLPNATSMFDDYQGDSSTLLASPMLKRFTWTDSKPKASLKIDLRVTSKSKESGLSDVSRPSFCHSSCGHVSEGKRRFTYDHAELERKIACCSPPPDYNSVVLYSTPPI
Chain of RIOK3 (human) (O14730 whole entry, looked up): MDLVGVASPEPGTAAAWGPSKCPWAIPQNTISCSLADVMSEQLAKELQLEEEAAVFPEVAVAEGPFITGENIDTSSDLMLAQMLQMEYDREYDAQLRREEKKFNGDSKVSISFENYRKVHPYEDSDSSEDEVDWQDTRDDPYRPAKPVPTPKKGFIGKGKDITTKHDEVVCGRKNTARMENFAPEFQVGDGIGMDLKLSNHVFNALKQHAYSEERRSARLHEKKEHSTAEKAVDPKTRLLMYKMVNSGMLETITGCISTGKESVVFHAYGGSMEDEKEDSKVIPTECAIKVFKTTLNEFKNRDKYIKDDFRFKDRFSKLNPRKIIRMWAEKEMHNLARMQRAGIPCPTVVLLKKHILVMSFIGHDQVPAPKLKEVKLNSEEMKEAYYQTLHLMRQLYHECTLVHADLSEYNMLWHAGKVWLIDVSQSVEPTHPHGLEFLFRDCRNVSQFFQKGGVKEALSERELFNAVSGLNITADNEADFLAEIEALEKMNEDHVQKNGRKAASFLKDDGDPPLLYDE
Chain of ABL2 (human) (P42684 whole entry, looked up): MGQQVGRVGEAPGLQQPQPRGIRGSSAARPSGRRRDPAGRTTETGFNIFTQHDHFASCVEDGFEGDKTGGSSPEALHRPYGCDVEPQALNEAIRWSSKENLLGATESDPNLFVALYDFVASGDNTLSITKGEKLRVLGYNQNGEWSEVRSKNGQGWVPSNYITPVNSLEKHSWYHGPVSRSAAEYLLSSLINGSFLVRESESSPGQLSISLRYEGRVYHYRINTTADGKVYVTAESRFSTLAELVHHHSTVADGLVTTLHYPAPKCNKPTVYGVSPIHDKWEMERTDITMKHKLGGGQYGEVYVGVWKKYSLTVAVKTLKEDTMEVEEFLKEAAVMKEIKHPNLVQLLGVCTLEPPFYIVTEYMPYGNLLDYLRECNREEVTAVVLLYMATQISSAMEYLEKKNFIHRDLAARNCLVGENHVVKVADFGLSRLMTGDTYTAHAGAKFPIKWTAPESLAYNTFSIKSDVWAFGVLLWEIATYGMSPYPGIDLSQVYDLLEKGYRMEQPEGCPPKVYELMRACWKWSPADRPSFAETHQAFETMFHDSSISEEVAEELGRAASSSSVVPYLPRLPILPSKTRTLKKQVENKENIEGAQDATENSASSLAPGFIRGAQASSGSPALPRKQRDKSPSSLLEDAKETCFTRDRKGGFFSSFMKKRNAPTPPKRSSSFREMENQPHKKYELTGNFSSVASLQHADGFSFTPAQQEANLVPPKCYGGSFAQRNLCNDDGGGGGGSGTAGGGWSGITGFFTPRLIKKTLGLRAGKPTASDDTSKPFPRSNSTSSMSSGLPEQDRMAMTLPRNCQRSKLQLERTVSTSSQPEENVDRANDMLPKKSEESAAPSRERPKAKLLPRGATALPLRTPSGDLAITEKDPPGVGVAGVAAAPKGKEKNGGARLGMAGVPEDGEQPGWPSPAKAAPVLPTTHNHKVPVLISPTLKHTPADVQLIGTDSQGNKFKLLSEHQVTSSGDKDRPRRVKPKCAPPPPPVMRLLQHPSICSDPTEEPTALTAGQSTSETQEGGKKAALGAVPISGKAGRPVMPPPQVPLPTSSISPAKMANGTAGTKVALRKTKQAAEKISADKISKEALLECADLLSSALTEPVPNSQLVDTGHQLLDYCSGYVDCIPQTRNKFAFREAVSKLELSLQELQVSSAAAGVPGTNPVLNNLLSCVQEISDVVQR
Chain of MELK (human) (Q14680 whole entry, looked up): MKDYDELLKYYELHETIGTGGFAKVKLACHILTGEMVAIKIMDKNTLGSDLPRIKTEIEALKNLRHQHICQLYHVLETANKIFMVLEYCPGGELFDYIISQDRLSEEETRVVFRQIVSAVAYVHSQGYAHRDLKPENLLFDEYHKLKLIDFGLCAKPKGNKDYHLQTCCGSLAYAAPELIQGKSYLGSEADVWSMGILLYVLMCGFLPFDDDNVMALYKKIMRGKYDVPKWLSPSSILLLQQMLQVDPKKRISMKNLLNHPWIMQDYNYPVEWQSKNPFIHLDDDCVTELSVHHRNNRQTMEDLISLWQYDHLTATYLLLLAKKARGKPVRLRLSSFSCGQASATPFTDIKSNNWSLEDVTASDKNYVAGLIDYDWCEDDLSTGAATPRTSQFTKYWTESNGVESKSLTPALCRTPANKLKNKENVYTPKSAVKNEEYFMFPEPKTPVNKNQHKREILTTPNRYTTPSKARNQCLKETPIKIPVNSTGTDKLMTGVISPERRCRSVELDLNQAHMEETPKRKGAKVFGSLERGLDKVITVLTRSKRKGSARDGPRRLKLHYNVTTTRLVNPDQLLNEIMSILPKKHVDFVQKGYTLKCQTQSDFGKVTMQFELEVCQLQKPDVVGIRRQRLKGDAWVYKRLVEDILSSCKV
Chain of RPS6KA4 KD2 (human) (O75676 whole entry, looked up): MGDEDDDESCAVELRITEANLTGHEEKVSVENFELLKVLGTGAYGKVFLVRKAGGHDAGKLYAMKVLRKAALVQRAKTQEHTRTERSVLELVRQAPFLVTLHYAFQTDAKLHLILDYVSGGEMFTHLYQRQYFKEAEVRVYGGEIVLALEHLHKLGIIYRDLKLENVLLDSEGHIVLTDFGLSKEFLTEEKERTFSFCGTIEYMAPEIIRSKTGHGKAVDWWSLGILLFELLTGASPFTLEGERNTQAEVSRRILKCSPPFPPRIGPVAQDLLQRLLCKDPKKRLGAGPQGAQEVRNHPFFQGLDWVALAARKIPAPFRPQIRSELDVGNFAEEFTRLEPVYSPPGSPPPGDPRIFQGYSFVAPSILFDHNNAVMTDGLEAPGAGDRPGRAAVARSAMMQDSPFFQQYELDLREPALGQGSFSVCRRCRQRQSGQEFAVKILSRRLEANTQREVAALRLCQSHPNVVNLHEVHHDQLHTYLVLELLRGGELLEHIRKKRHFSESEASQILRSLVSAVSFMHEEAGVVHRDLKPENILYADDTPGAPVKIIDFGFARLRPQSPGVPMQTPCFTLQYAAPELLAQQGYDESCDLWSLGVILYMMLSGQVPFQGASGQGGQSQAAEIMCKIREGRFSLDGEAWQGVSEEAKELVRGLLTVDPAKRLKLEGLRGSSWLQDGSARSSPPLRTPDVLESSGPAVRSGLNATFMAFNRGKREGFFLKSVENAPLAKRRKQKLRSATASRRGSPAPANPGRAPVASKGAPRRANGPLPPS
Chain of CSK (human) (P41240 whole entry, looked up): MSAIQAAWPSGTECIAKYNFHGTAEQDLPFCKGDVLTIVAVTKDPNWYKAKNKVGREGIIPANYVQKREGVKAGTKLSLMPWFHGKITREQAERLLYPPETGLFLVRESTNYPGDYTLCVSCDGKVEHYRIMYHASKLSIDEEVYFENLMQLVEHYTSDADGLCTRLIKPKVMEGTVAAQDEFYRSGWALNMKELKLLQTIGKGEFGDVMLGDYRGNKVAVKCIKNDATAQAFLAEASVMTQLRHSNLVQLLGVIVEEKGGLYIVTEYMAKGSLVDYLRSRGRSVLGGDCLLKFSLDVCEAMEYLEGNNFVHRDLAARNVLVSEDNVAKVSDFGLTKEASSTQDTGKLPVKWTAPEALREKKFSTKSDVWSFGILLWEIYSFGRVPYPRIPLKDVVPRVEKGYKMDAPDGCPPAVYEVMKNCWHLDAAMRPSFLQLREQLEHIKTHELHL

SMILES	kinase still bound, per cent of control (CDK3 (human)) [%]	kinase still bound, per cent of control (PAK6 (human)) [%]	kinase still bound, per cent of control (CSNK2A1 (human)) [%]	kinase still bound, per cent of control (MINK1 (human)) [%]	kinase still bound, per cent of control (RIOK3 (human)) [%]	kinase still bound, per cent of control (ROS1 (human)) [%]	kinase still bound, per cent of control (CSNK2A2 (human)) [%]	kinase still bound, per cent of control (TGFBR1 (human)) [%]	kinase still bound, per cent of control (STK24 (human)) [%]	kinase still bound, per cent of control (DCLK2 (human)) [%]	kinase still bound, per cent of control (MAP3K5 (human)) [%]	kinase still bound, per cent of control (AURKB (human)) [%]	kinase still bound, per cent of control (PTK2 (human)) [%]	kinase still bound, per cent of control (WEE1 (human)) [%]	kinase still bound, per cent of control (ERBB4 (human)) [%]	kinase still bound, per cent of control (FLT1 (human)) [%]	kinase still bound, per cent of control (PRKAA1 (human)) [%]	kinase still bound, per cent of control (NUAK1 (human)) [%]	kinase still bound, per cent of control (EPHB4 (human)) [%]	kinase still bound, per cent of control (BMPR2 (human)) [%]	further results
COc1cc(N2CCN(C)CC2)ccc1Nc1nc(N)c(C(=O)c2c(Cl)cccc2Cl)s1	97	55	91	61	100	11	88	100	77	4.1	100	93	62	100	100	100	81	100	97	82	kinase still bound, per cent of control (MELK (human)): 100%; kinase still bound, per cent of control (RPS6KA3 KD1 (human)): 66%; kinase still bound, per cent of control (STK36 (human)): 100%; kinase still bound, per cent of control (CSNK1G2 (human)): 100%; kinase still bound, per cent of control (ULK1 (human)): 93%; kinase still bound, per cent of control (MAP3K10 (human)): 100%; kinase still bound, per cent of control (FER (human)): 82%; kinase still bound, per cent of control (ULK3 (human)): 100%; kinase still bound, per cent of control (PIP4K2B (human)): 100%; kinase still bound, per cent of control (PRKD3 (human)): 70%; kinase still bound, per cent of control (MAP2K1 (human)): 100%; kinase still bound, per cent of control (TNK2 (human)): 97%; kinase still bound, per cent of control (ABL2 (human)): 82%; kinase still bound, per cent of control (STK38L (human)): 84%; kinase still bound, per cent of control (EPHA6 (human)): 99%; kinase still bound, per cent of control (CDK7 (human)): 2.8%; kinase still bound, per cent of control (PIP5K1A (human)): 88%; kinase still bound, per cent of control (RPS6KA4 KD2 (human)): 100%; kinase still bound, per cent of control (CSK (human)): 90%
CCOc1cc2ncc(C#N)c(Nc3ccc(OCc4ccccn4)c(Cl)c3)c2cc1NC(=O)/C=C/CN(C)C	100	74	94	6.8	97	96	72	100	0.35	100	100	75	65	57	0	95	79	61	91	78	kinase still bound, per cent of control (ZAP70 (human)): 87%; kinase still bound, per cent of control (MELK (human)): 55%; kinase still bound, per cent of control (RPS6KA3 KD1 (human)): 89%; kinase still bound, per cent of control (STK36 (human)): 69%; kinase still bound, per cent of control (ULK1 (human)): 100%; kinase still bound, per cent of control (MAP3K10 (human)): 88%; kinase still bound, per cent of control (FER (human)): 37%; kinase still bound, per cent of control (ULK3 (human)): 100%; kinase still bound, per cent of control (PIP4K2B (human)): 95%; kinase still bound, per cent of control (PRKD3 (human)): 65%; kinase still bound, per cent of control (MAP2K1 (human)): 0.4%; kinase still bound, per cent of control (TNK2 (human)): 40%; kinase still bound, per cent of control (ABL2 (human)): 92%; kinase still bound, per cent of control (STK38L (human)): 100%; kinase still bound, per cent of control (EPHA6 (human)): 99%; kinase still bound, per cent of control (CDK7 (human)): 68%; kinase still bound, per cent of control (PIP5K1A (human)): 100%; kinase still bound, per cent of control (RPS6KA4 KD2 (human)): 94%; kinase still bound, per cent of control (CSK (human)): 13%
CC[C@@H]1C(=O)N(C)c2cnc(Nc3ccc(C(=O)NC4CCN(C)CC4)cc3OC)nc2N1C1CCCC1	100	100	100	100	100	28	100	100	100	13	100	100	2.4	100	100	100	100	100	100	100	kinase still bound, per cent of control (ZAP70 (human)): 100%; kinase still bound, per cent of control (MELK (human)): 29%; kinase still bound, per cent of control (STK36 (human)): 100%; kinase still bound, per cent of control (ULK1 (human)): 100%; kinase still bound, per cent of control (MAP3K10 (human)): 100%; kinase still bound, per cent of control (FER (human)): 100%; kinase still bound, per cent of control (ULK3 (human)): 100%; kinase still bound, per cent of control (PIP4K2B (human)): 100%; kinase still bound, per cent of control (PRKD3 (human)): 10%; kinase still bound, per cent of control (MAP2K1 (human)): 100%; kinase still bound, per cent of control (TNK2 (human)): 100%; kinase still bound, per cent of control (ABL2 (human)): 100%; kinase still bound, per cent of control (STK38L (human)): 100%; kinase still bound, per cent of control (EPHA6 (human)): 100%; kinase still bound, per cent of control (CDK7 (human)): 100%; kinase still bound, per cent of control (PIP5K1A (human)): 100%; kinase still bound, per cent of control (RPS6KA4 KD2 (human)): 0%; kinase still bound, per cent of control (CSK (human)): 100%
Cn1c(=O)n(-c2ccc(C(C)(C)C#N)cc2)c2c3cc(-c4cnc5ccccc5c4)ccc3ncc21	100	100	100	100	100	100	100	100	100	100	100	100	100	100	100	100	100	30	100	100	kinase still bound, per cent of control (ZAP70 (human)): 100%; kinase still bound, per cent of control (MELK (human)): 100%; kinase still bound, per cent of control (STK36 (human)): 100%; kinase still bound, per cent of control (CSNK1G2 (human)): 100%; kinase still bound, per cent of control (ULK1 (human)): 100%; kinase still bound, per cent of control (MAP3K10 (human)): 100%; kinase still bound, per cent of control (FER (human)): 100%; kinase still bound, per cent of control (ULK3 (human)): 100%; kinase still bound, per cent of control (PIP4K2B (human)): 100%; kinase still bound, per cent of control (PRKD3 (human)): 100%; kinase still bound, per cent of control (MAP2K1 (human)): 100%; kinase still bound, per cent of control (TNK2 (human)): 100%; kinase still bound, per cent of control (ABL2 (human)): 100%; kinase still bound, per cent of control (STK38L (human)): 100%; kinase still bound, per cent of control (EPHA6 (human)): 100%; kinase still bound, per cent of control (CDK7 (human)): 100%; kinase still bound, per cent of control (PIP5K1A (human)): 100%; kinase still bound, per cent of control (RPS6KA4 KD2 (human)): 100%; kinase still bound, per cent of control (CSK (human)): 100%
